Test results from ChEMBL document CHEMBL4765450, “The components and activities analysis of a novel anticoagulant candidate dHG-5” (Eur J Med Chem, 2020).
Calls of active or inactive are those of the source. The rule behind the calls is not given here.

Columns and labels:
[1] = biological target: Coagulation factor XI (Homo sapiens) (UniProt P03951); experiment: Inhibition of factor 11a (unknown origin) at IC50 using S-2366 as substrate preincubated for 1 min followed by chromogenic substrate addition and measured for 2 mins in presence of AT-III; settings: time 3.0 min
[2] = biological target: T1, Coagulation factor IX/VIII (Homo sapiens) (UniProt P00740+P00451); experiment: (§1) Inhibition of human citrated plasma iXase (factor 8a-factor 9a complex) preincubated for 2 mins followed by factor 10 addition and measured after 1 min by FXa chromogenic substrate SXa-11 based assay relative to dHG-5; type: protein-complex assay; settings: time 3.0 min
[3] = biological target: T2, Coagulation factor VII (Homo sapiens) (UniProt P08709); experiment: Inhibition of factor 7a (unknown origin) at IC50 using pefachrome factor VIIa as substrate preincubated for 1 min followed by chromogenic substrate addition and measured for 2 mins; settings: time 3.0 min
T2 sequence (whole entry): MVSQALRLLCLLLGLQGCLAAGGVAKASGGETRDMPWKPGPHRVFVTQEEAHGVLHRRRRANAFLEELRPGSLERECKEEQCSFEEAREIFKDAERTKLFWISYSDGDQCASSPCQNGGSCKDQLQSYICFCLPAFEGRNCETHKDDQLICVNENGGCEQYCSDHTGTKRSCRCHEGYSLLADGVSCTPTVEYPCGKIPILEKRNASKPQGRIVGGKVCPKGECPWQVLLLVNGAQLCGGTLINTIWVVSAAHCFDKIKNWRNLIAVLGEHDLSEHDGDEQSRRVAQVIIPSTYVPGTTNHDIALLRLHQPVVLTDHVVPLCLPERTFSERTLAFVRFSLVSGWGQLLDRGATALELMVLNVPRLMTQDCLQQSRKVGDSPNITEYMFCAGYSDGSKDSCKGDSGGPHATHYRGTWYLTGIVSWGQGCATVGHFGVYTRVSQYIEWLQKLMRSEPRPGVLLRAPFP

Rattus norvegicus [4] = experiment: Antithrombotic activity in thromboplastin and stasis-induced Sprague-Dawley rat deep venous thrombosis model assessed as reduction in venous thrombosis by measuring activity potency of oligosaccharides multiplied by the percentage of oligosaccharides in dHG-5 at 1.66 mg/kg, sc administered 1 hr prior to thromboplastin addition for 20 secs followed by establishment of stasis for 20 mins relative …; type: functional; settings: time 80.33 min, 1.339 h
[5] = biological target: Coagulation factor X (Homo sapiens) (UniProt P00742); experiment: Inhibition of factor 10a (unknown origin) at IC90 preincubated for 1 min followed by chromogenic substrate addition and measured for 2 mins in presence of AT-III relative to control; settings: time 3.0 min
Plasma [6] = experiment: Anticoagulation activity in human plasma assessed as drug level causing 20 times doubling of APTT by measuring activity potency of oligosaccharides multiplied by the percentage of oligosaccharides in dHG-5 preincubated for 2 mins followed by APTT reagent and measured after 3 mins by coagulometric method relative to dHG-5; type: functional; settings: time 5 min
Coagulation factor IX [7] = biological target: T3, Coagulation factor IX (Homo sapiens, UniProt P00740); experiment: Inhibition of factor 9a (unknown origin) binding to immobilized biotinylated oHG-11 by biolayer interferometry relative to dHG-5
Rattus norvegicus [8] = experiment: Antithrombotic activity in thromboplastin and stasis-induced Sprague-Dawley rat deep venous thrombosis model assessed as reduction in venous thrombosis at 1.66 mg/kg, sc administered 1 hr prior to thromboplastin addition for 20 secs followed by establishment of stasis for 20 mins relative to dHG-5; type: functional; settings: time 80.33 min, 1.339 h
[9] = biological target: Prothrombin (Homo sapiens) (UniProt P00734); experiment: Inhibition of factor 2a (unknown origin) at IC50 preincubated for 1 min followed by chromogenic substrate addition and measured for 2 mins in presence of AT-III; settings: time 3.0 min
[10] = biological target: T4, Coagulation factor XII (Homo sapiens) (UniProt P00748); experiment: Inhibition of factor 12a (unknown origin) at IC50 using kallikrein chromogenic substrate preincubated for 1 min followed by chromogenic substrate addition and measured for 2 mins; settings: time 3.0 min
T4 sequence (whole entry): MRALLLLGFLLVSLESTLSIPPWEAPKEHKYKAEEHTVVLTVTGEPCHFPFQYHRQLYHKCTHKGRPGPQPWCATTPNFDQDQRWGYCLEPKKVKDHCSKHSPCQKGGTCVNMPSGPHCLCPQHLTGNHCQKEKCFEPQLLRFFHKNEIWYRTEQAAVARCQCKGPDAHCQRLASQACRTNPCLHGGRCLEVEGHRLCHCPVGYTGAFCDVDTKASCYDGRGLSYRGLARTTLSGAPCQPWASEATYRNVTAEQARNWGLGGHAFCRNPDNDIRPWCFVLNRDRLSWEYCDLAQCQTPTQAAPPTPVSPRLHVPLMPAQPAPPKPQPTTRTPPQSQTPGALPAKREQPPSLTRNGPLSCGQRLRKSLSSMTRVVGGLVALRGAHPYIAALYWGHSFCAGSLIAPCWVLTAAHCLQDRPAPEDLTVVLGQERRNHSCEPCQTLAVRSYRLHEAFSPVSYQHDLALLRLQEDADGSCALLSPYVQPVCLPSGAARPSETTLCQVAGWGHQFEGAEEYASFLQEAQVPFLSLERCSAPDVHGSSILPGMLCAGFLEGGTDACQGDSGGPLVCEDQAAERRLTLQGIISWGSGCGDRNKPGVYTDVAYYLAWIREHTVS

[11] = biological target: Coagulation factor X (Homo sapiens) (UniProt P00742); experiment: Inhibition of factor 10a (unknown origin) at IC50 preincubated for 1 min followed by chromogenic substrate addition and measured for 2 mins in presence of AT-III; settings: time 3.0 min
[12] = biological target: Prothrombin (Homo sapiens) (UniProt P00734); experiment: Inhibition of factor 2a (unknown origin) at IC90 preincubated for 1 min followed by chromogenic substrate addition and measured for 2 mins in presence of AT-III; settings: time 3.0 min
[13] = biological target: Coagulation factor XI (Homo sapiens) (UniProt P03951); experiment: Inhibition of factor 11a (unknown origin) at IC90 using S-2366 as substrate preincubated for 1 min followed by chromogenic substrate addition and measured for 2 mins in presence of AT-III; settings: time 3.0 min
[14] = biological target: Coagulation factor XI (Homo sapiens) (UniProt P03951); experiment: Inhibition of factor 11a (unknown origin) at IC50 using S-2366 as substrate preincubated for 1 min followed by chromogenic substrate addition and measured for 2 mins; settings: time 3.0 min
[15] = biological target: T2, Coagulation factor VII (Homo sapiens); experiment: Inhibition of factor 7a (unknown origin) at IC50 using pefachrome factor VIIa as substrate preincubated for 1 min followed by chromogenic substrate addition and measured for 2 mins in presence of AT-III; settings: time 3.0 min
[16] = biological target: Prothrombin (Homo sapiens) (UniProt P00734); experiment: Inhibition of factor 2a (unknown origin) at IC50 preincubated for 1 min followed by chromogenic substrate addition and measured for 2 mins; settings: time 3.0 min
[17] = biological target: Coagulation factor X (Homo sapiens) (UniProt P00742); experiment: Inhibition of factor 10a (unknown origin) at IC50 preincubated for 1 min followed by chromogenic substrate addition and measured for 2 mins; settings: time 3.0 min
[18] = biological target: T4, Coagulation factor XII (Homo sapiens); experiment: Inhibition of factor 12a (unknown origin) at IC50 using kallikrein chromogenic substrate preincubated for 1 min followed by chromogenic substrate addition and measured for 2 mins in presence of AT-III; settings: time 3.0 min
Coagulation factor IX [19] = biological target: T3, Coagulation factor IX; experiment: Inhibition of factor 9a (unknown origin) binding to immobilized biotinylated oHG-11 assessed as activity potency of oligosaccharides multiplied by the percentage of oligosaccharides in dHG-5 by biolayer interferometry relative to dHG-5
Plasma [20] = experiment: Anticoagulation activity in human plasma assessed as drug level causing 20 times doubling of APTT preincubated for 2 mins followed by APTT reagent and measured after 3 mins by coagulometric method relative to dHG-5; type: functional; settings: time 5 min
[21] = biological target: T1, Coagulation factor IX/VIII (Homo sapiens); experiment: as §1, with “complex) assessed as activity potency of oligosaccharides multiplied by the percentage of oligosaccharides in dHG-5” for “complex)”; type: protein-complex assay; settings: time 3.0 min

Chain of Coagulation factor XI (Homo sapiens) (P03951 19-387 limits assumed): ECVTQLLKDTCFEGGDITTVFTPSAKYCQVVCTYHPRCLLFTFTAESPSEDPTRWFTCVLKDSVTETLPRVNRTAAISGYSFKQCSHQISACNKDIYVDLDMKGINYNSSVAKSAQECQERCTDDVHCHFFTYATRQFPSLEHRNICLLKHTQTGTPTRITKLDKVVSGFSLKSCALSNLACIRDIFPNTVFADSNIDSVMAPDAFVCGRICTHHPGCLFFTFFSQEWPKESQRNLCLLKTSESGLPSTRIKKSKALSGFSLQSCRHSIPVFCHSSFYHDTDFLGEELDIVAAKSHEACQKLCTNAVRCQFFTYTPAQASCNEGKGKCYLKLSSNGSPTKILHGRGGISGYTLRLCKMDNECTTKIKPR
Chain of Coagulation factor XI (Homo sapiens) (P03951 388-625 limits assumed): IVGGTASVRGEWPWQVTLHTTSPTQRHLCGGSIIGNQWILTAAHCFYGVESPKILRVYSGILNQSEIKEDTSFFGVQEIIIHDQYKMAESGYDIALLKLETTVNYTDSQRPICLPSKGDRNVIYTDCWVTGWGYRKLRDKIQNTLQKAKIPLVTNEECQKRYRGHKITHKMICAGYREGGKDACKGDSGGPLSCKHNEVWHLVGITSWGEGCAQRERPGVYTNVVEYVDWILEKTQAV
Chain of Coagulation factor X (Homo sapiens) (P00742 41-179 limits assumed): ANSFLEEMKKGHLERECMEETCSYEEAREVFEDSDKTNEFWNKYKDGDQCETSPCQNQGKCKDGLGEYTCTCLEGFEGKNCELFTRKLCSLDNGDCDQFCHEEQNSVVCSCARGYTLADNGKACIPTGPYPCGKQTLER
Chain of Coagulation factor X (Homo sapiens) (P00742 235-488 limits assumed): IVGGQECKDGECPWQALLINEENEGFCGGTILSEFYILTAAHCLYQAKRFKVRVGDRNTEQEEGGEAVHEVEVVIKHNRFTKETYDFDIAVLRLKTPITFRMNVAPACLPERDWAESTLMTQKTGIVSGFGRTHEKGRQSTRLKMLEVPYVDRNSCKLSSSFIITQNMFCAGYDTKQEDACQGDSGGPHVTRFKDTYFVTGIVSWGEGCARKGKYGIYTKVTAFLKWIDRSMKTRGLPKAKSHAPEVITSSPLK
T3 sequence (P00740 47-191 limits assumed): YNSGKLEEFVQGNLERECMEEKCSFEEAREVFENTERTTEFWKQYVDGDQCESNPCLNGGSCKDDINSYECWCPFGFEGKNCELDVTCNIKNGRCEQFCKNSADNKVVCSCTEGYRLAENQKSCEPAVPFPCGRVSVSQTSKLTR
T3 sequence (P00740 227-461 limits assumed): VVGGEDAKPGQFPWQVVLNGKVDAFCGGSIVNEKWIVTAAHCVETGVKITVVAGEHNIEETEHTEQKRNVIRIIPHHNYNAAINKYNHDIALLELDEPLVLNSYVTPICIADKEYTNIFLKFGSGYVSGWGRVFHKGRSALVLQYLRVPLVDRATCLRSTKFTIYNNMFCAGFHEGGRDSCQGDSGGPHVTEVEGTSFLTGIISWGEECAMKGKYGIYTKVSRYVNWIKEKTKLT

Question: For CC(=O)N[C@H]1[C@H](O[C@H]2[C@H](O[C@@H]3O[C@@H](C)[C@@H](OS(=O)(=O)[O-])[C@@H](OS(=O)(=O)O)[C@@H]3O)[C@@H](O)[C@H](O[C@@H]3[C@@H](NC(C)=O)[C@H](O[C@H]4[C@H](O[C@@H]5O[C@@H](C)[C@@H](OS(=O)(=O)[O-])[C@@H](OS(=O)(=O)O)[C@@H]5O)[C@@H](O)[C@H](O[C@@H]5[C@@H](NC(C)=O)[C@H](O[C@H]6[C@H](O[C@@H]7O[C@@H](C)[C@@H](OS(=O)(=O)[O-])[C@@H](OS(=O)(=O)O)[C@@H]7O)[C@@H](O)[C@H](O[C@@H]7[C@@H](NC(C)=O)[C@H](O[C@H]8[C@H](O[C@@H]9O[C@@H](C)[C@@H](OS(=O)(=O)[O-])[C@@H](OS(=O)(=O)O)[C@@H]9O)[C@@H](O)[C@H](O[C@@H]9[C@@H](NC(C)=O)[C@H](O[C@@H]([C@H](O[C@@H]%10O[C@@H](C)[C@@H](OS(=O)(=O)[O-])[C@@H](OS(=O)(=O)O)[C@@H]%10O)[C@@H](O)CO)[C@H](O)C(=O)O)O[C@H](COS(=O)(=O)[O-])[C@@H]9OS(=O)(=O)[O-])O[C@@H]8C(=O)O)O[C@H](COS(=O)(=O)[O-])[C@@H]7OS(=O)(=O)[O-])O[C@@H]6C(=O)[O-])O[C@H](COS(=O)(=O)[O-])[C@@H]5OS(=O)(=O)[O-])O[C@@H]4C(=O)[O-])O[C@H](COS(=O)(=O)[O-])[C@@H]3OS(=O)(=O)[O-])O[C@@H]2C(=O)[O-])O[C@H](COS(=O)(=O)[O-])[C@H](OS(=O)(=O)[O-])[C@@H]1O[C@@H]1O[C@H](C(=O)[O-])[C@@H](O[C@@H]2O[C@H](COS(=O)(=O)[O-])[C@H](OS(=O)(=O)[O-])[C@H](O[C@@H]3O[C@H](C(=O)[O-])[C@@H](O[C@@H]4O[C@H](COS(=O)(=O)[O-])[C@H](OS(=O)(=O)[O-])[C@H](O[C@@H]5O[C@H](C(=O)O)[C@@H](O[C@@H]6O[C@H](COS(=O)(=O)[O-])[C@H](OS(=O)(=O)[O-])[C@H](O[C@@H]7OC(C(=O)O)=C[C@H](O[C@@H]8O[C@@H](C)[C@@H](OS(=O)(=O)[O-])[C@@H](OS(=O)(=O)O)[C@@H]8O)[C@H]7O)[C@H]6NC(C)=O)[C@H](O[C@@H]6O[C@@H](C)[C@@H](OS(=O)(=O)[O-])[C@@H](OS(=O)(=O)O)[C@@H]6O)[C@H]5O)[C@H]4NC(C)=O)[C@H](O[C@@H]4O[C@@H](C)[C@@H](OS(=O)(=O)[O-])[C@@H](OS(=O)(=O)O)[C@@H]4O)[C@H]3O)[C@H]2NC(C)=O)[C@H](O[C@@H]2O[C@@H](C)[C@@H](OS(=O)(=O)[O-])[C@@H](OS(=O)(=O)O)[C@@H]2O)[C@H]1O.[Na+].[Na+].[Na+].[Na+].[Na+].[Na+].[Na+].[Na+].[Na+].[Na+].[Na+].[Na+].[Na+].[Na+].[Na+].[Na+].[Na+].[Na+].[Na+].[Na+].[Na+].[Na+].[Na+].[Na+].[Na+].[Na+].[Na+].[Na+].[Na+].[Na+], which inhibition [1] is on record?
Answer: The inhibition was “inactive”.

Question: What about the Ratio [2] of the same compound?
Answer: The Ratio was 403 U.

Question: And the “inhibition (active/not active)” value [3]?
Answer: The value was “inactive”.

Question: What about the Ratio (Rattus norvegicus [4]) of the same compound?
Answer: Its Ratio is 13.38 U.

Question: And the inhibition [5]?
Answer: Its inhibition is “inactive”.

Question: What about the Ratio (Plasma [6]) of the same compound?
Answer: The Ratio was 15.15 U.

Question: What about the Ratio (Coagulation factor IX [7]) of the same compound?
Answer: The Ratio was 235 U.

Question: What about the Ratio (Rattus norvegicus [8]) of the same compound?
Answer: The Ratio was 284.73 U.

Question: What about the inhibition [9] of the same compound?
Answer: Its inhibition is “inactive”.

Question: And the inhibition [10]?
Answer: Its inhibition is “inactive”.

Question: And the inhibition [11]?
Answer: Its inhibition is “inactive”.

Question: What about the inhibition [12] of the same compound?
Answer: Its inhibition is “Active”.

Question: And the inhibition [13]?
Answer: Its inhibition is “Active”.

Question: And the inhibition [14]?
Answer: Its inhibition is “inactive”.

Question: And the inhibition [15]?
Answer: Its inhibition is “inactive”.

Question: And the inhibition [16]?
Answer: The inhibition was “inactive”.

Question: And the inhibition [17]?
Answer: Its inhibition is “inactive”.

Question: And the inhibition [18]?
Answer: Its inhibition is “inactive”.

Question: And the Ratio (Coagulation factor IX [19])?
Answer: Its Ratio is 11.2 U.

Question: And the Ratio (Plasma [20])?
Answer: Its Ratio is 319.64 U.

Question: What about the Ratio [21] of the same compound?
Answer: Its Ratio is 19.1 U.
